Measurements from article PMC10982999, “Structure-Guided Design and Optimization of Covalent VHL-Targeted Sulfonyl Fluoride PROTACs” (Journal of Medicinal Chemistry, 2024).
Where two headings read alike, the source gives them in different places.

How the values were obtained:
[1] = target: T1, recombinant human VCB (VHL protein with elongin C and elongin B) (Homo sapiens, UniProt P40337); assay: Gel-based streptavidin shift assay (anti-VHL Western blot); format: binding; conditions: 10 μM probe, 2 h incubation at room temperature
T1 construct: human VHL (UniPort entry P40337, residues 1 -213); 6xHis followed by TEV site (N, cleaved yes); made in house; host or cells: E. coli One Shot BL21(DE3)
Method: (§1) To assess the ability of VHL-SF1 to covalently modify VHL, we initially developed a streptavidin shift assay in which we exposed recombinant human VCB, a stable complex of VHL protein with elongin C and elongin B, to VHL-SF1-Biotin. VHL biotinylation could then be directly quantified by the apparent shift in molecular weight observed when the sample was mixed with streptavidin and analyzed by an anti-VHL Western blot (Figure S2).[20] Through this assay, we concluded that 10 μM VHL-SF1-Biotin modified 32% VHL following 2 h of incubation at room temperature, which was further confirmed to be concentration-dependent with respect to the probe (Figure S3).
Figure S2. (A) Structure of VHL-SF-1-Biotin. (B) Structure of VHL-SF-2-Biotin. (C - E) Gel-based streptavidin shift assay of VHL-SF1-Biotin, and VHL-SF2-Biotin. VCB protein was pre-treated with DMSO, VHL-SF1-Biotin (10 μM) or VHL-SF2-Biotin (10 μM) for 2 h at room temperature prior to addition of streptavidin (10 μM, 10 min) at room temperature, after which protein was resolved on SDS-PAGE and visualised by VHL western blotting. (F) Quantification of VHL levels from western blot.
Docking analysis with Molecular Operating Environment (MOE)
Molecular modelling studies were conducted using the software Molecular Operating Environment 2019.01. […]

VCB protein = target: T2, VCB protein (Homo sapiens, UniProt P40337); assay: Gel-based labelling of VHL (Neutravidin HRP blot); format: binding; conditions: 2 h at room temperature, 1-100 µM probe
T2 construct: human VHL (UniPort entry P40337, residues 1 -213); 6xHis followed by TEV site (N, cleaved yes); made in house; host or cells: E. coli One Shot BL21(DE3)
Method: as §1
Figure S3. (A) Gel-based VHL labelling of VHL-SF1-Biotin, and (B) VHL-SF2-Biotin. […]
Figure S4. Dose-response of VHL-SF1 following a 2 h pre-incubation in the presence of VCB and FAM-conjugated HIF1α-derived peptide, assessed by fluorescence polarization. […]
VCB (11.1 mg/ mL) was diluted with PBS pH 7.4 (2 µg/ mL). […] 10 µL of each sample was loaded onto the gel and the bands were quantified […]
HEK293T cells were plated into two 6 well plates (in 1 mL media 10% FBS low glucose media) at a cell density of 1.0 x 10^6 cells/well 24 h before treatment. […] Proteins were separated by SDS -PAGE and further analyzed by immunoblotting. […]

[2] = target: T3, BRD4 (HEK293 HiBiT-BRD4 Cln3 cells) (Homo sapiens, UniProt O60885); assay: BRD4 HiBiT degradation assay; format: cell-based
T3 construct: GSK; host or cells: HEK293 HiBiT-BRD4 Cln3
Method: Figure 3 (A) Structure of BRD-SF2. […] BRD4 and loading control GAPDH levels were visualized by Western blotting. […] (D) HEK293 HiBiT-BRD4 Cln3 cells were treated with epoxomicin (1 μM) for 3 h, followed by the respective PROTAC or VHL-SF2 dose-dependently (75–0.01 μM) for 18 h. […] (E) HEK293 HiBiT-BRD4 Cln3 cells were treated with MLN4924 (1 μM) for 3 h, followed by the respective PROTAC or VHL-SF2 dose-dependently (75–0.01 μM) for 18 h. […] (F) Structure of AR-VHL-SF2 and AR2-VHL-SF2. […] The data the show mean ± SEM (n = 3).
Cellular BRD4/AR HiBiT assay
The HiBiT tagged cells were seeded at 10,000 cells per well in a 384-well plate (Thermo Scientific, 164610) at 25 µL per well in DMEM media containing 10% FBS and incubated overnight. Compounds were dispensed using D300e Digital Dispenser (HP) and normalized to 0.1% DMSO. Cells were pre-treated with Epoxomicin or MLN4924 for 3 h before treatment or directly with the PROTAC degraders for 18 or 24 h. Nano -Glo HiBiT lytic detection assay was performed as described in the manufacturer protocol (Promega). 25 µL of premixed detection reagent was added to each well of the 384 well assay plate and incubated for 15 min on an orbital shaker (at 600 RPM), and luminescence was read using a PHERAstar FS plate reader (BMG Labtech). Corresponding background RLU values were subtracted from DMSO control values and the percentage of protein (%) of were then calculated against […]
DMSO-treated controls. […]

BRD4-HiBiT HEK293T cells = conditions: 18 h, 70-0.01 μM
[3] = target: T3, BRD4 (HEK293 HiBiT-BRD4 Cln3 cells); format: cell-based; conditions: 5 h treatment, PBS washing, 24 h recovery with excess VH032 (50 μM) vs standard treatment 29 h; from AUC of residual BRD4 long isoform
Method: To further investigate the potential advantage of a covalent VHL ligand, we performed a head-to-head comparison of BRD-SF2 and MZ-1 in a washout experiment.
BRD4 and loading control Tubulin levels were visualized by Western blotting. […] BRD4 and loading control Tubulin levels were visualized by Western blotting.
with BRD-SF2 and MZ1, followed by 3 cycles of PBS wash, where media was aspirated, and
PBS used to gently wash the cells before allowing 24 h recovery incubation in DMEM media
The control plate was run as
described above, but no washout was applied making the total incubation time 29 h (5 h + 24
h). The assay was performed and analysed as described above.

[4] = target: T4, endogenous BRD4 in HEK293 cells (Homo sapiens, UniProt O60885); assay: Endogenous BRD4 degradation, Western blot; format: cell-based; conditions: 18 h, read-out: BRD4 long isoform Dmax
T4 construct: endogenous in cells; host or cells: HEK293

Molecule | VHL modified (VHL biotinylation, streptavidin shift) [1] | VHL labelling with respect to probe concentration (VCB protein) | Dmax ([2]; HEK293, read-out: Dmax (BRD4 degradation)) | BRD4 depletion in presence of NEDDylation inhibitor MLN4924 ([2]; MLN4924 1 μM 3 h pretreatment, then compound 18 h) | BRD4 depletion in presence of proteasome inhibitor epoxomicin ([2]; epoxomicin 1 μM 3 h pretreatment, then compound 18 h) | DC50 ([2]; read-out: BRD4 DC50) | DC50 ([2]; read-out: DC50 (BRD4 degradation), 18 h incubation) | cytotoxicity (CellTiter-Glo) (BRD4-HiBiT HEK293T cells) | relative decrease in degradation activity after washout [3] | Dmax [4]
(3R,5S)-1-((S)-2-(tert-Butyl)-4,16-dioxo-20-((3aS,4R,6aR)-2-oxohexahydro-1H-thieno[3,4-d]imidazole-4-yl)-6,9,12-trioxa-3,15-diazaicosanoyl)-5-((4-(4-methylthiazol-5-yl)benzyl)carbamoyl-)pyrrolidine-3-sulfonyl fluoride [VHL-SF1-Biotin] | 32% | concentration-dependent |  |  |  |  |  |  |  | 
COCC(COC)n1c(-c2cc(C)c(=O)n(C)c2)nc2cc(C3CCN(C(=O)COCCOCCOCCNC(=O)C[C@H](NC(=O)[C@@H]4C[C@@H](S(=O)(=O)F)CN4C(=O)[C@@H](c4cc(C)no4)C(C)C)c4ccc(-c5scnc5C)cc4)CC3)ccc21 [BRD-SF2, (3R,5S)-5-(((S)-1-(4-(1-(1,3-Dimethoxypropan-2-yl)-2-(1,5-dimethyl-6-oxo-1,6-dihydropyridin-3-yl)-1H-benzo[d]imidazole-5-yl)piperidin-1-yl)-15-(4-(4-methylthiazol-5-yl)phenyl)-1,13-dioxo-3,6,9-trioxa-12-azapentadecan-15-yl)carbamoyl)-1-((R)-3-methyl-2-(3-methylisoxazol-5-yl)butanoyl)pyrrolidine-3-sulfonyl fluoride] |  |  | 60% | not depleted | not depleted | 17 µM | 17.2 µM | no evidence of cytotoxicity | 27% | 50%
